The zone of inhibition is the size of the clear area around the sample on an inoculated plate. A low value points to little suppression of growth. As a reminder, the inhibition is the percentage by which the read-out fell short of the control. As usually defined, the IC50 is the concentration needed to halve the response being measured. Read a high IC50 as a need for much substance.

The test system of test [1] is P. aeruginosa (ATCC 27853). Kind of test: Disk diffusion antimicrobial test, P. aeruginosa. Particulars: Pseudomonas aeruginosa, ATCC27853, Gram-negative, 20 mg per disc (title), concentration 20 µg (footnote). Type of test: cell-based, Pseudomonas areuginosa. In outline: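 Disk diffusion: 6 mm paper discs soaked with 20 μl compound in DMSO at 1 mg/mL, placed on inoculated nutrient agar (pH 7.2). Bacteria incubated 24 h at 37 °C, yeast 48–72 h at 30 °C; growth inhibition zone measured in mm.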
A general note: A growth-free zone around the sample is the usual read-out of agar diffusion tests.

The next test deals with C. albicans (ATCC 10231). Kind of test: Disk diffusion antimicrobial test, C. albicans. The class given is cell-based, Candida albicans. Particulars: Candida albicans, ATCC10231, disk diffusion; yeast; 20 mg per disc (title), concentration 20 µg (footnote). As for the experimental part: (§1) The newly synthesized compounds were chosen to be evaluated in vitro towards a variety of pathogenic microorganisms; Gram-positive bacteria: S. aureus (ATCC 6538) and B. subtilis (ATCC 6633); Gram-negative bacteria: P. areuginosa (ATCC 27853) and E. coli (DSMZ 1058); yeast: C. albicans (ATCC 10231) and S. cerevisiae (ATCC 9080) and fungi: A. niger (NRRL A-326) using the disk diffusion method at a single dose of 20 µl. The results are shown in Table 1 as the growth inhibition zone (mm).
(§2) The antimicrobial activity of target compounds were evaluated to be in vitro against a variety of pathogenic microorganisms, namely Staphylococcus aureus (ATCC 6538), Bacillus subtilis (ATCC 6633) (Gram-positive bacteria), Pseudomonas areuginosa (ATCC 27853), Escherichia coli (DSMZ 1058) (Gram-negative bacteria), Candida albicans (ATCC 10231), Saccharomyces cerevisiae (ATCC 9080) (Yeast) and Aspergillus niger (NRRL A-326) (Fungi) using the disk diffusion method at a single dose of 20 µg. The microorganisms were served and obtained from the Microbial Biotechnology Department, National Research Center, Giza, Egypt. Amphotericin, amoxicillin and ciprofloxacin were used as reference drugs (Oxoid™ Disks). The tested compounds 11a–c, 12a–c, 13a–i, 14a–i and 15a,b were dissolved in dimethylsulphoxide (DMSO) at a concentration of 1 mg/mL. Aliquots of 20 μl were soaked on filter paper discs (6 mm) and dried at room temperature under sterilized conditions. The paper discs were placed on inoculated agar plats and then incubated for 24 h at 37 °C for bacterial strains and after 48–72 h incubation at 30 °C for fungi. Both bacterial and yeast strains were grown on nutrient agar medium (g/l): beef extract, 3; peptone, 10 and agar, 20 at pH of 7.2. The fungal strain was grown on Czapek-Dox medium (g/l): sucrose, 30; NaNO3, 3; MgSO4.7H2O, 0.5l; KCl, 0.5; FeSO4, 0.01; K2HPO4, 1 and agar, 20 at pH of 6.0.

Test [2] deals with HCT-116 (human colon cancer). The test can be described thus: MTT cytotoxicity assay, HCT-116. The class given is cell-based. Particulars: Homo sapiens; for inhibition at 100 µg/mL: HCT-116, 100 µg/ml, 48 h, read-out: Growth Inhibition (%) HCT-116; for IC50: HCT-116, 48 h, 48 h post-treatment. A general note: Tetrazolium assays rely on reduction of a dye to a coloured formazan, in cell work by metabolically active cells.
Description: MCF-7 (human breast cancer), HCT-116 (human colon cancer) and HepG2 (human liver cancer) cell lines were obtained from Karolinska Institute, Stockholm, Sweden. All cells were maintained in RPMI 1640 medium. The media were supplemented with 10% heat-inactivated fetal bovine serum plus 1% antibiotic-antimycoticmixture (10,000 U/mL of potassium penicillin, 10,000 μg/mL of streptomycin sulfate, 25 μg/mL of amphotericin B and 1% of L glutamine (Biowest, USA)). BJ-1 of a human skin fibroblast derived from normal foreskin was obtained from ATCC® CRL-2522™ as a frozen ampoule with about 1 × 10^6 cells per 1 ml volume. BJ-1 was maintained in MEM with 2 mM of L-glutamine and Earle’s salts medium.
Cell viability was studied using the MTT 3-(4,5-dimethylthiazol-2-yl)-2,5-diphenyl-tetrazolium bromide (Bio Basic Canada Inc. Toronto, Canada) assay [33]. The steps were executed in a sterile laminar air flow cabinet biosafety class II level (Baker, SG403INT; Sanford, ME, USA). All incubations were carried out at 37 °C in a 5% CO2 incubator under a humidified atmosphere of 95% (Sheldon, TC2323; Cornelius, OR, USA). Cells were seeded into 96-well microtiter plastic plates at a concentration of (10^4 cells/well) and allowed to adhere for 24 h. The medium was aspirated and then added to the cells with the test compounds 11a–c, 12a–c, 13a–i, 14a–i and 15a,b at a single dose of 100 μg/mL in DMSO. After incubation of the medium for 48 h, 40 μL of MTT salt (2.5 μg/mL) was added to each well and then incubated for an additional 4 h. To stop the reaction and dissolve any formed formazan crystals, 200 μL of 10% sodium dodecyl sulfate (SDS) were added to each well and incubated overnight at 37 °C. The amount of formazan product was measured at 595 nm with a reference wavelength of 690 nm as a background using a microplate reader (Bio-Rad Laboratories, model 3350, California, USA). For the untreated cells (negative control), the medium was added instead of the tested compounds. […] Dimethylsulfoxide (DMSO) was the vehicle used for dissolution of the testing compound, and its final concentration on the cells was less than 0.2%. At the same dilution, the solvent concentration was the same for all drugs and between the control and drug treatments.

Test [3] deals with Bcl-2. Kind of test: Bcl-2 ELISA in HCT-116 cells. The class given is cell-based, human. The following applies: for Bcl-2 (ng/50 mg Protein): HCT-116 cells treated at IC50 concentration, control 23.56 ± 3.56, mean ± SD; for Reduction of expression level of antiapoptotic protein Bcl-2 compared to the control: HCT-116 cells, IC50 concentration. From the text: (§3) The promising antiproliferative results reported for compounds 11a, 11b, 12a, 12b and 13c against cell lines under study have prompted us to investigate the mechanism of cell death induced by these compounds. Apoptosis induction was examined in both MCF-7 and HCT-116 cancer cells by assaying the level of its key protein markers, namely: proapoptotic (p53, Bcl 2-associated X, Bax and caspases3) and antiapoptotic (B-cell lymphoma-2, Bcl-2). MCF-7 and HCT-116 cells undergoing apoptosis was detected by use of the ELISA technique. Protein marker levels were quantified according to Bradford assay.
(§4) Briefly, cells ([…] and HCT) were seeded at a concentration of 1.2–1.8 × 10^3 cells/well in 6-well plates. After 48-h treatment, the collected cells were lysed and centrifuged at 10,000 rpm for 20 min at 4 °C. The protein concentration was measured in the supernatant by Bradford protein assay. Volume containing […] of total protein was incubated with […] of caspase substrate in […] of the reaction buffer at 37 °C for 1 h in the dark. Caspase-3 activity was determined by a microplate reader at 405 nm using a caspase-3 colorimetric assay kit (Abcam) according to the manufacturer’s instructions. In vitro protein level quantitative measurement of apoptotic marker p53, Bcl-2-associated X (Bax) and antiapoptotic marker B-cell lymphoma-2 (Bcl-2) in cell lysate were assessed by Enzyme-Linked Immunosorbent Assay Simple Step ELISA® (ab199080, ab119506 and ab171571; Abcam) according to the manufacturer’s instructions.
In general terms: In an ELISA, binding on a coated surface is turned into a signal by an enzyme label.

Test [4] concerns Bcl-2. Kind of test: Bcl-2 ELISA in MCF-7 cells. Type of test: cell-based, human. Particulars: for Bcl-2 (ng/50 mg Protein): MCF-7 cells treated at IC50 concentration, control 25.13 ± 3.45, mean ± SD; for Reduction of expression level of antiapoptotic protein Bcl-2 compared to the control: MCF-7 cells, IC50 concentration.
Excerpt: as §3, §4

Test [5] has as its system caspase-3. The test can be described thus: Caspase-3 colorimetric assay in HCT-116 cells. Type of test: cell-based, human. Particulars: HCT-116 cells treated at IC50 concentration; control 13.60 ± 2.45; mean ± SD.
Excerpt: as §3, §4

The test system of test [6] is caspase-3. The test can be described thus: Caspase-3 colorimetric assay in MCF-7 cells. The class given is cell-based, human. The following applies: for Caspase-3 Activity %: MCF-7 cells treated at IC50 concentration, control 10.2 ± 2.84, mean ± SD; for Elevation of active caspase-3 protein levels compared to the control: MCF-7 cells, IC50 concentration.
Excerpt: as §3, §4

In a further test the test system is S. aureus (ATCC 6538). The test can be described thus: Disk diffusion antimicrobial test, S. aureus. Particulars: Staphylococcus aureus, ATCC6538, Gram-positive, 20 mg per disc (title), concentration 20 µg (footnote). The class given is cell-based, Staphylococcus aureus. As for the experimental part:
as §1, §2

The test system of another test is A. niger (NRRL A-326). The test can be described thus: Disk diffusion antimicrobial test, A. niger. The class given is cell-based. Particulars: Aspergillus niger, fungi, 20 mg per disc (title), concentration 20 µg (footnote). As for the experimental part:
as §1, §2

Converted amounts (≈) assume the structure as drawn.

Take `COc1c(C2=NNC3(C2)C(=O)Nc2ccccc23)c(O)cc2occc12` (centres unmarked) [Compound 11a, 5’-(6-Hydroxy-4-methoxy-benzofuran-5-yl)-2’,4’-dihydrospiro(indoline-3,3’-pyrazol)-2-one]: the zone of inhibition at 20 µg/disc in test [1] came out at 8 mm. For the same compound, the zone of inhibition at 20 µg/disc in the test with C. albicans (ATCC 10231) came to 20 mm. In [2], the inhibition at 100 µg/mL stood at 96.2% and half-maximal inhibition (IC50) required 5.7 mg/L (≈ 16.3 µM). In the test on Bcl-2 [3], the “Bcl-2 (ng/50 mg Protein)” value turned out to be 8.2 ± 1.26 ng/50 mg Protein and the “Reduction of expression level of antiapoptotic protein Bcl-2 compared to the control” value (“Reduction” below) is ~ 66%. In the test with Bcl-2 [4], the “Bcl-2 (ng/50 mg Protein)” value is reported as 12.3 ± 2.26 ng/50 mg Protein and the “Reduction” value is listed as ~ 50%. In addition, in the test on caspase-3 [5], the “Caspase-3 Activity %” value amounted to 19.12 ± 0.89%. In the test with caspase-3 [6], the “Caspase-3 Activity %” value was 16.67 ± 0.67% and the “Elevation of active caspase-3 protein levels compared to the control” value (shortened to “Elevation … compared to the control”) is given as ~ 1.6 folds.

Regarding `COc1c(C2=NNC3(C2)C(=O)Nc2ccccc23)c(O)c(OC)c2occc12` (centres unmarked) [Compound 12a, 5’-(6-Hydroxy-4,7-dimethoxy-benzofuran-5-yl)-2’,4’-dihydrospiro(indoline-3,3’-pyrazol)-2-one], the zone of inhibition at 20 µg/disc in test [1] worked out at 18 mm; with C. albicans (ATCC 10231), 12 mm; in the test with S. aureus (ATCC 6538), 8 mm. In addition, the inhibition at 100 µg/mL in test [2] amounted to 96.7%. Besides, it took 5.8 mg/L (≈ 15.3 µM) to reach half-maximal inhibition in [2] (IC50). For the same compound, the results for the “Bcl-2 (ng/50 mg Protein)” value with Bcl-2 [3] and in the test on Bcl-2 [4] were 21.13 ± 1.45 ng/50 mg Protein and 13.09 ± 2.27 ng/50 mg Protein, respectively. Besides, the “Reduction” value in the test on Bcl-2 [4] is recorded as ~52%. In addition, the “Caspase-3 Activity %” value turned out to be 17.43 ± 0.58% with caspase-3 [5] and 14.18 ± 0.74% in the test with caspase-3 [6]. Moreover, the “Elevation … compared to the control” value in the test on caspase-3 [6] is reported as ~1.4 folds.

Take `COc1c(C2=NNC3(C2)C(=O)Nc2ccccc23)c(OC)c2ccoc2c1OC` (centres unmarked) [Compound 12b, 5’-(4,6,7-Trimethoxy-benzofuran-5-yl)-2’,4’-dihydrospiro(indoline-3,3’-pyrazol)-2-one]: the zone of inhibition at 20 µg/disc came to 24 mm in test [1], 8 mm with A. niger (NRRL A-326), 10 mm with C. albicans (ATCC 10231) and 10 mm with S. aureus (ATCC 6538). The inhibition at 100 µg/mL in [2] was found to be 95.1%. The compound also showed an IC50 in [2] of 7.9 mg/L (≈ 20.1 µM). The entries for the “Bcl-2 (ng/50 mg Protein)” value in the test on Bcl-2 [3] and with Bcl-2 [4] were 18.87 ± 1.84 ng/50 mg Protein and 12.87 ± 1.84 ng/50 mg Protein, respectively. The “Reduction” value with Bcl-2 [4] is given as ~51%. In addition, the “Caspase-3 Activity %” value was 33.12 ± 1.37% in the test on caspase-3 [5] and 47.25 ± 1.89% in the test on caspase-3 [6]. Moreover, the “Elevation … compared to the control” value in the test on caspase-3 [6] is ~4.6 folds.

In test [1], `COc1cc2occc2c(OC)c1C1=NNC2(C1)C(=O)Nc1ccccc12` (centres unmarked) [Compound 11b, 5’-(4,6-Dimethoxy-benzofuran-5-yl)-2’,4’-dihydrospiro(indoline-3,3’-pyrazol)-2-one] showed a zone of inhibition at 20 µg/disc of 12 mm. Moreover, the zone of inhibition at 20 µg/disc with C. albicans (ATCC 10231) worked out at 18 mm. In test [2], the inhibition at 100 µg/mL was 94.9% and inhibition was half-maximal at 16.4 mg/L (≈ 45.1 µM) (IC50). For the same compound, in the test with Bcl-2 [3], the “Bcl-2 (ng/50 mg Protein)” value worked out at 7.25 ± 1.45 ng/50 mg Protein and the “Reduction” value is ~76%. Further, the “Bcl-2 (ng/50 mg Protein)” value in the test with Bcl-2 [4] is listed as 16.18 ± 0.78 ng/50 mg Protein. Also, the “Caspase-3 Activity %” value with caspase-3 [5] came out at 14.04 ± 0.54%. In the test on caspase-3 [6], the “Caspase-3 Activity %” value was 16.19 ± 0.79% and the “Elevation … compared to the control” value is recorded as ~ 1.6 folds.

The values are drawn from paper PMC7179167 (Molecules, 2020).
